From patent US9145351B2, “Azole derivatives, methods for producing the same, intermediate thereof, agro-horticultural agents” (KUREHA CORPORATION, priority 2009, dated 2015)

Columns and labels:
Type in all cases: cell-based
Botritis cinerea = test: Plate medium fungicidal assay, gray mold B.c (Experimental Example 5)
Procedure: (§1) In this Experimental Example, the fungicidal effects of the inventive compounds on various phytopathogenic fungi for plants and hazardous microorganism for industrial materials were examined by the methods described below. Each inventive compound was dissolved in 2 ml of dimethyl sulfoxide. 0.6 ml of this solution was added to 60 nil of a PDA medium (potato dextrose agar medium) at about 60 degrees C., which was mixed thoroughly in a 100-ml conical flask, and poured into a dish, where it was solidified, thereby obtaining a plate medium containing the inventive compound at 50 mg/L and 5 mg/L. On the other hand, a subject microorganism previously cultured on a plate medium was cut out using a cork borer whose diameter was 4 mm, and inoculated to the test compound-containing plate medium described above. […] The growth degree of the microorganism on the test compound-containing plate medium thus observed was compared with the growth degree of the microorganism in the untreated group, and % mycelial growth inhibition was calculated by the following equation. R=100(dc−dt)/dc wherein R=% mycelial extension inhibition, dc=flora diameter in untreated plate, dt=flora diameter in treated plate. The results obtained as described above were evaluated as one of the 5 grades according to the following criteria. […] Gray mold (Botritis cinerea) B.c

Ustilago nuda = test: Plate medium fungicidal assay, barley loose smut U.n (Experimental Example 5)
Procedure: as §1, with “Barley loose smut (Ustilago nuda) U.n” for “Gray mold (Botritis cinerea) B.c”

Rhynchosporium secalis = test: Plate medium fungicidal assay, barley leaf blotch R.sec (Experimental Example 5)
Procedure: as §1, with “Barley leaf blotch (Rhynchosporium secalis) R.sec” for “Gray mold (Botritis cinerea) B.c”

Sclerotinia sclerotiorum = test: Plate medium fungicidal assay, Sclerotinia rot S.s (Experimental Example 5)
Procedure: as §1, with “Sclerotinia rot (Sclerotinia sclerotiorum) S.s” for “Gray mold (Botritis cinerea) B.c”

Pyricularia oryzae = test: microbe, parasite or virus in culture
Giberella fujikuroi = test: Plate medium fungicidal assay, rice bakanae disease G.f (Experimental Example 5)
Procedure: as §1, with “Rice bakanae disease (Giberella fujikuroi) G.f” for “Gray mold (Botritis cinerea) B.c”

[1] = plate medium containing compound at 5 mg/L
[2] = plate medium containing compound at 50 mg/L
[3] = Pyricularia oryzae, read-out: growth inhibition grade P.o

| Compound | Growth inhibition grade, B.c (Botritis cinerea; [1]) | Growth inhibition grade, B.c (Botritis cinerea; [2]) | Growth inhibition grade, U.n (Ustilago nuda; [1]) | Growth inhibition grade, U.n (Ustilago nuda; [2]) | Growth inhibition grade, R.sec (Rhynchosporium secalis; [1]) | Growth inhibition grade, R.sec (Rhynchosporium secalis; [2]) | Growth inhibition grade, S.s (Sclerotinia sclerotiorum; [1]) | Growth inhibition grade, S.s (Sclerotinia sclerotiorum; [2]) | Growth inhibition grade, P.o (Pyricularia oryzae; [1]) | Growth inhibition grade, P.o (Pyricularia oryzae; [2]) | Growth inhibition grade, G.f (Giberella fujikuroi; [1]) | Growth inhibition grade, G.f (Giberella fujikuroi; [2]) | other results |
| --- | --- | --- | --- | --- | --- | --- | --- | --- | --- | --- | --- | --- | --- |
| C[C@@]1(CCl)CC[C@@H](Cc2ccc(Cl)cc2)[C@]1(O)Cn1cncn1 (racemic) [Compound I-101] | 5 (% Mycerial growth inhibition of 80% or higher) | 5 (% Mycerial growth inhibition of 80% or higher) | 5 (% Mycerial growth inhibition of 80% or higher) | 5 (% Mycerial growth inhibition of 80% or higher) | 5 (% Mycerial growth inhibition of 80% or higher) | 5 (% Mycerial growth inhibition of 80% or higher) | 5 (% Mycerial growth inhibition of 80% or higher) | 5 (% Mycerial growth inhibition of 80% or higher) | 5 (% Mycerial growth inhibition of 80% or higher) | 5 (% Mycerial growth inhibition of 80% or higher) | 5 (% Mycerial growth inhibition of 80% or higher) | 5 (% Mycerial growth inhibition of 80% or higher) |  |
| C[C@]1(CBr)CC[C@@H](Cc2ccc(F)cc2)[C@]1(O)Cn1cncn1 (racemic) [Compound I-601, (1RS,2SR,5SR)-2-bromomethyl-5-(4-fluorobenzyl)-2-methyl-1-(1H-1,2,4-triazol-1-ylmethyl)cyclopentanol] |  |  |  |  |  |  |  |  |  |  |  |  | inhibition at 5 µg/mL (Botritis cinerea; plate medium, 5 mg/L, read-out: growth inhibition grade B.c): 60 to 80%; inhibition at 50 µg/mL (Botritis cinerea; plate medium, 50 mg/L, read-out: growth inhibition grade B.c): > 80%; inhibition at 5 µg/mL (Ustilago nuda; Ustilago nuda, plate medium, 5 mg/L, read-out: growth inhibition grade U.n): 40 to 60%; inhibition at 50 µg/mL (Ustilago nuda; Ustilago nuda, plate medium, 50 mg/L, read-out: growth inhibition grade U.n): > 80%; inhibition at 5 µg/mL (Rhynchosporium secalis; Rhynchosporium secalis, plate medium, 5 mg/L, read-out: growth inhibition grade R.sec): > 80%; inhibition at 50 µg/mL (Rhynchosporium secalis; Rhynchosporium secalis, plate medium, 50 mg/L, read-out: growth inhibition grade R.sec): > 80%; inhibition at 5 µg/mL (Sclerotinia sclerotiorum; Sclerotinia sclerotiorum, plate medium, 5 mg/L, read-out: growth inhibition grade S.s): > 80%; inhibition at 50 µg/mL (Sclerotinia sclerotiorum; Sclerotinia sclerotiorum, plate medium, 50 mg/L, read-out: growth inhibition grade S.s): > 80%; inhibition at 5 µg/mL (Pyricularia oryzae; [3]): > 80%; inhibition at 50 µg/mL (Pyricularia oryzae; [3]): > 80%; inhibition at 5 µg/mL (Giberella fujikuroi; plate medium, 5 mg/L, read-out: growth inhibition grade G.f): > 80%; inhibition at 50 µg/mL (Giberella fujikuroi; plate medium, 50 mg/L, read-out: growth inhibition grade G.f): > 80% |
| C[C@]1(CCl)CC[C@@H](Cc2ccccc2F)[C@]1(O)Cn1cncn1 (relative stereo) [Compound I-86] | 5 (% Mycerial growth inhibition of 80% or higher) | 5 (% Mycerial growth inhibition of 80% or higher) | 5 (% Mycerial growth inhibition of 80% or higher) | 5 (% Mycerial growth inhibition of 80% or higher) | 5 (% Mycerial growth inhibition of 80% or higher) | 5 (% Mycerial growth inhibition of 80% or higher) | 5 (% Mycerial growth inhibition of 80% or higher) | 5 (% Mycerial growth inhibition of 80% or higher) | 5 (% Mycerial growth inhibition of 80% or higher) | 5 (% Mycerial growth inhibition of 80% or higher) | 5 (% Mycerial growth inhibition of 80% or higher) | 5 (% Mycerial growth inhibition of 80% or higher) |  |
| C[C@]1(CCl)CC[C@@H](Cc2ccc(F)cc2F)[C@]1(O)Cn1cncn1 (relative stereo) [Compound I-88] | 5 (% Mycerial growth inhibition of 80% or higher) | 5 (% Mycerial growth inhibition of 80% or higher) | 5 (% Mycerial growth inhibition of 80% or higher) | 5 (% Mycerial growth inhibition of 80% or higher) | 5 (% Mycerial growth inhibition of 80% or higher) | 5 (% Mycerial growth inhibition of 80% or higher) | 5 (% Mycerial growth inhibition of 80% or higher) | 5 (% Mycerial growth inhibition of 80% or higher) | 5 (% Mycerial growth inhibition of 80% or higher) | 5 (% Mycerial growth inhibition of 80% or higher) | 5 (% Mycerial growth inhibition of 80% or higher) | 5 (% Mycerial growth inhibition of 80% or higher) |  |
| CC[C@]1(CCl)CC[C@@H](Cc2ccccc2)[C@]1(O)Cn1cncn1 (relative stereo) [Compound I-97] | 5 (% Mycerial growth inhibition of 80% or higher) | 5 (% Mycerial growth inhibition of 80% or higher) | 5 (% Mycerial growth inhibition of 80% or higher) | 5 (% Mycerial growth inhibition of 80% or higher) | 5 (% Mycerial growth inhibition of 80% or higher) | 5 (% Mycerial growth inhibition of 80% or higher) | 5 (% Mycerial growth inhibition of 80% or higher) | 5 (% Mycerial growth inhibition of 80% or higher) | 5 (% Mycerial growth inhibition of 80% or higher) | 5 (% Mycerial growth inhibition of 80% or higher) | 5 (% Mycerial growth inhibition of 80% or higher) | 5 (% Mycerial growth inhibition of 80% or higher) |  |
